In the experiment the test system is dextran sulfate salt (DSS) induced chronic ulcerative colitis in male Swiss-Webster mice. The experiment is described as follows: Olsalazine on dextran sulfate salt (DSS) induced chronic ulcerative colitis in mice. It is filed as in vivo. The note with it: for survival to necropsy day: 3% DSS days 0-14, 15% in disease controls; for mean body weight loss at study end: 3% DSS, disease control lost 3.90 g; for colon content score (mean, scale 0-3) / mean colon length / inhibition of decreased colon length: day 14; for colon content score (mean, scale 0-3): disease control mean 2.67; for mean colon length: normal 10.60, disease control 6.33; for inhibition of decreased colon length: vs disease control. The method, then:
A study was conducted to determine the effect of Olsalazine on dextran sulfate salt (DSS) induced chronic ulcerative colitis in male Swiss-Webster mice. Groups of 20 male Swiss-Webster mice were allowed ad libitum access to Olsalazine qd beginning on day −3 and then continued daily (qd) or every two days (q2d) starting on day 0 and continuing through day 14. Dipentum®, Olsalazine Sodium is a sodium salt of salicylate, disodium 3,3′-azobis(6-hydroxybenzoate) and when exposed to colonic bacteria converts to mesalamine. In this animal model, male Swiss-Webster mice are exposed to DSS (3% days 0-14) to induce inflammation and gland loss with erosion in the colon.
Dextran sulfate, molecular weight 40-50,000 (sodium salt, Spectrum Chemicals, New Brunswick, N.J., Lot#RA1107) was stored at room temperature until added to appropriate volumes of tap water to prepare sufficient 3% DSS solutions. Prepared solutions were stored at 4° C. and added to water bottles daily. Every 3rd day, water in all bottles was discarded and replaced with fresh DSS preparations or tap water (normal controls). Dipentum® (Olsalazine Sodium) was received from the sponsor in hard gelatin capsule form. Capsules were received and each capsule contained 250 mg. On study day −3, 51 capsules were opened (˜12.75 grams) and the contents of each were consolidated into a labeled vial. Appropriate amounts of the beige-orange compound was then added to 250 ml water bottles so that each bottle would contain ˜0.83 mg/ml Olsalazine suspension in the water.
• Male Swiss-Webster mice weighing approximately 22-29 grams on day (−)3 were obtained from Harlan, Inc (Indianapolis, Ind.). Animals were identified by color-coded dots at the base of the tail delineating group and animal number. After randomization, all cages were labeled with protocol number, group and animal numbers with appropriate color-coding.
Animals (5/group/normal control, 20/group for diseased treated), housed 5/cage, were given 3.0% DSS in their water from test days 0-14. Olsalazine treatment was initiated on day −3 and continued daily through day 14, or on days −3, −2, −1, 0, 2, 4, 6, 8, 10, 12, and 14 for the q2d group. Animals were terminated on day 14. • Experimental groups were as follows:
Animals were weighed on study days −3 to 14. On day 14 mice were weighed, euthanized, and the entire colon was removed and the length determined. The colons were scored for gross changes using the following criteria:
0=normal, no blood observed
2=semi-solid to fluid stool
3=semi-solid with definite evidence of blood, bloody fluid or no content
Only animals that survived to study termination were included in the analysis of terminal colon lengths and scores.
For each surviving animal, the entire colon (proximal and distal) was trimmed into 8 equally spaced pieces for processing and embedding. Sections were stained with hemotoxylin and eosin (H&E). For each colon section, submucosal edema was quantified by measuring the distance (mm) from the muscularis mucosa to the internal border of the outer muscle layer in representative areas of edema. The extent of inflammation (foamy macrophages, lymphocytes and polymorphonuclear cell infiltrate) was assigned severity scores according to the following ranking:
The parameters reflecting epithelial cell loss/damage were scored individually using a percent area involved scoring method:
Parameters that were scored using the above percent involvement scale include: • 1) Colon glandular loss—includes crypt epithelial as well as remaining gland epithelial loss. • 2) Colon erosion—reflects loss of surface epithelium and generally is associated with mucosal hemorrhage (seen clinically and at necropsy).
Mucosal epithelial hyperplasia (basophilia, mitotic figures, multi-layered on basement membranes, absence of goblet cells) was scored 0-5 based on the following criteria […]

The mark [1] stands for this setting: Olsalazine ad libitum, q2d, compared to disease controls.
Setting [2] is: Olsalazine ad libitum, q2d, histopathology day 14, non significant.
[3] abbreviates: Olsalazine ad libitum, qd, histopathology day 14.
[4] abbreviates: Olsalazine ad libitum, qd, histopathology day 14, non significant.
[5] abbreviates: Olsalazine ad libitum, qd, histopathology day 14, significant.

In the case of `O=C([O-])c1cc(N=Nc2ccc(O)c(C(=O)[O-])c2)ccc1O.[Na+].[Na+]` [Olsalazine, disodium 3,3′-azobis(6-hydroxybenzoate)], the “survival to necropsy day” value (Olsalazine ad libitum in water (~0.83 mg/ml), every day (qd), day -3 to 14) was found to be 75%. The “survival to necropsy day” value (Olsalazine ad libitum, every other day (q2d): days -3,-2,-1,0,2,...14) came out at 50%. Where the note is “Olsalazine ad libitum, q2d”, the “mean body weight loss at study end” value stood at 3.10 g; the “colon content score (mean, scale 0-3)” value came out at 2.70; the mean colon length is 7.1 cm; the “inhibition of decreased colon length” value was determined as 18%. Under setting [1], the “inhibition of mean hyperplasia score” value was 11% and the “inhibition of mucosal thickness” value turned out to be 17%. Also, the “inhibition of colon gland loss” value (Olsalazine ad libitum, q2d, histopathology day 14) stood at 32%. Further, under setting [2], the “inhibition of colon edema” value was 21%, the “inhibition of colon erosion” value came out at 27%, the “inhibition of colon inflammation” value is on record as 27% and the “inhibition of sum colon histopathologic score” value was 29%. Besides, for the setting “Olsalazine ad libitum, qd”, the “mean body weight loss at study end” value stood at 4.78 g; the “colon content score (mean, scale 0-3)” value turned out to be 2.33; the mean colon length came out at 7.33 cm; the “inhibition of decreased colon length” value amounted to 23%. Moreover, under “Olsalazine ad libitum, qd, compared to disease control”, the “inhibition of mean hyperplasia score” value was found to be 16%. Further, under setting [3], the “inhibition of colon erosion” value is recorded as 32% and the “inhibition of increase of mucosal thickness” value was 32%. Besides, under setting [4], the “inhibition of colon edema” value is given as 22% and the “inhibition of sum colon histopathologic score” value worked out at 35%. Further, under setting [5], the “inhibition of colon gland loss” value was 32% and the “inhibition of colon inflammation” value is listed as 33%.

Values taken from patent US20100015111A1, “Methods And Kits For The Treatment Inhibition, And Maintenance Of Gastrointestinal Disorders” (priority 2008, published 2010).
